{"source": "PubChem BioAssay (NCI)", "assay_in_all_cases": "NCI-60 cell line screen, 48 h", "key": {"[1]": {"tested_on": "786-0 renal"}, "[2]": {"tested_on": "A549 NSCLC"}, "[3]": {"tested_on": "ACHN renal"}, "[4]": {"tested_on": "CAKI-1 renal"}, "[5]": {"tested_on": "COLO 205 colon"}, "[6]": {"tested_on": "DLD-1 colon"}, "[7]": {"tested_on": "DMS 114 small cell lung"}, "[8]": {"tested_on": "DMS 273 small cell lung"}, "[9]": {"tested_on": "EKVX NSCLC"}, "[10]": {"tested_on": "HCC-2998 colon"}, "[11]": {"tested_on": "HCT-116 colon"}, "[12]": {"tested_on": "HCT-15 colon"}, "[13]": {"tested_on": "HOP-18 NSCLC"}, "[14]": {"tested_on": "HOP-92 NSCLC"}, "[15]": {"tested_on": "IGROV1 ovarian"}, "[16]": {"tested_on": "K-562 leukemia"}, "[17]": {"tested_on": "KM12 colon"}, "[18]": {"tested_on": "KM20L2 colon"}, "[19]": {"tested_on": "LOX IMVI melanoma"}, "[20]": {"tested_on": "LXFL 529 NSCLC"}, "[21]": {"tested_on": "M14 melanoma"}, "[22]": {"tested_on": "M19-MEL melanoma"}, "[23]": {"tested_on": "MALME-3M melanoma"}, "[24]": {"tested_on": "MOLT-4 leukemia"}, "[25]": {"tested_on": "NCI-H226 lung"}, "[26]": {"tested_on": "NCI-H23 lung"}, "[27]": {"tested_on": "NCI-H460 lung"}, "[28]": {"tested_on": "NCI-H522 lung"}, "[29]": {"tested_on": "OVCAR-3 ovarian"}, "[30]": {"tested_on": "OVCAR-4 ovarian"}, "[31]": {"tested_on": "OVCAR-5 ovarian"}, "[32]": {"tested_on": "OVCAR-8 ovarian"}, "[33]": {"tested_on": "RPMI-8226 leukemia"}, "[34]": {"tested_on": "RXF 393 renal"}, "[35]": {"tested_on": "SF-268 CNS"}, "[36]": {"tested_on": "SF-295 CNS"}, "[37]": {"tested_on": "SF-539 CNS"}, "[38]": {"tested_on": "SK-MEL-2 melanoma"}, "[39]": {"tested_on": "SK-MEL-28 melanoma"}, "[40]": {"tested_on": "SK-MEL-5 melanoma"}, "[41]": {"tested_on": "SK-OV-3 ovarian"}, "[42]": {"tested_on": "SN12C renal"}, "[43]": {"tested_on": "SNB-19 CNS"}, "[44]": {"tested_on": "SNB-75 CNS"}, "[45]": {"tested_on": "SNB-78 CNS"}, "[46]": {"tested_on": "SR leukemia"}, "[47]": {"tested_on": "SW-620 colon"}, "[48]": {"tested_on": "TK-10 renal"}, "[49]": {"tested_on": "U251 CNS"}, "[50]": {"tested_on": "UACC-257 melanoma"}, "[51]": {"tested_on": "UACC-62 melanoma"}, "[52]": {"tested_on": "UO-31 renal"}, "[53]": {"tested_on": "XF 498 CNS"}, "[54]": {"tested_on": "A498 renal"}, "[55]": {"tested_on": "CCRF-CEM leukemia"}, "[56]": {"tested_on": "HOP-62 NSCLC"}, "[57]": {"tested_on": "HT29 colon"}}, "note": "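Tested at 5 concentrations; 48 h exposure; 96-well plates; endpoints linearly interpolated, else capped at highest concentration. TGI denotes the concentration required for complete inhibition of growth.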", "data": [{"smiles": "CC1NC(=O)C2=C1C(N)=NC(=O)C2", "note": "(configuration not stated)", "values": [{"measurement": "TGI", "setting": "[1]", "result": "> 100", "unit": "µM"}, {"measurement": "TGI", "setting": "[2]", "result": "> 100", "unit": "µM"}, {"measurement": "TGI", "setting": "[3]", "result": "> 100", "unit": "µM"}, {"measurement": "TGI", "setting": "[4]", "result": "> 100", "unit": "µM"}, {"measurement": "TGI", "setting": "[5]", "result": "> 100", "unit": "µM"}, {"measurement": "TGI", "setting": "[6]", "result": "> 100", "unit": "µM"}, {"measurement": "TGI", "setting": "[7]", "result": "> 100", "unit": "µM"}, {"measurement": "TGI", "setting": "[8]", "result": "> 100", "unit": "µM"}, {"measurement": "TGI", "setting": "[9]", "result": "> 100", "unit": "µM"}, {"measurement": "TGI", "setting": "[10]", "result": "> 100", "unit": "µM"}, {"measurement": "TGI", "setting": "[11]", "result": "> 100", "unit": "µM"}, {"measurement": "TGI", "setting": "[12]", "result": "> 100", "unit": "µM"}, {"measurement": "TGI", "setting": "[13]", "result": "> 100", "unit": "µM"}, {"measurement": "TGI", "setting": "[14]", "result": "> 100", "unit": "µM"}, {"measurement": "TGI", "setting": "[15]", "result": "> 100", "unit": "µM"}, {"measurement": "TGI", "setting": "[16]", "result": "> 100", "unit": "µM"}, {"measurement": "TGI", "setting": "[17]", "result": "> 100", "unit": "µM"}, {"measurement": "TGI", "setting": "[18]", "result": "> 100", "unit": "µM"}, {"measurement": "TGI", "setting": "[19]", "result": "> 100", "unit": "µM"}, {"measurement": "TGI", "setting": "[20]", "result": "> 100", "unit": "µM"}, {"measurement": "TGI", "setting": "[21]", "result": "> 100", "unit": "µM"}, {"measurement": "TGI", "setting": "[22]", "result": "> 100", "unit": "µM"}, {"measurement": "TGI", "setting": "[23]", "result": "> 100", "unit": "µM"}, {"measurement": "TGI", "setting": "[24]", "result": "> 100", "unit": "µM"}, {"measurement": "TGI", "setting": "[25]", "result": "> 100", "unit": "µM"}, {"measurement": "TGI", "setting": "[26]", "result": "> 100", "unit": "µM"}, {"measurement": "TGI", "setting": "[27]", "result": "> 100", "unit": "µM"}, {"measurement": "TGI", "setting": "[28]", "result": "> 100", "unit": "µM"}, {"measurement": "TGI", "setting": "[29]", "result": "> 100", "unit": "µM"}, {"measurement": "TGI", "setting": "[30]", "result": "> 100", "unit": "µM"}, {"measurement": "TGI", "setting": "[31]", "result": "> 100", "unit": "µM"}, {"measurement": "TGI", "setting": "[32]", "result": "> 100", "unit": "µM"}, {"measurement": "TGI", "setting": "[33]", "result": "> 100", "unit": "µM"}, {"measurement": "TGI", "setting": "[34]", "result": "> 100", "unit": "µM"}, {"measurement": "TGI", "setting": "[35]", "result": "> 100", "unit": "µM"}, {"measurement": "TGI", "setting": "[36]", "result": "> 100", "unit": "µM"}, {"measurement": "TGI", "setting": "[37]", "result": "> 100", "unit": "µM"}, {"measurement": "TGI", "setting": "[38]", "result": "> 100", "unit": "µM"}, {"measurement": "TGI", "setting": "[39]", "result": "> 100", "unit": "µM"}, {"measurement": "TGI", "setting": "[40]", "result": "> 100", "unit": "µM"}, {"measurement": "TGI", "setting": "[41]", "result": "> 100", "unit": "µM"}, {"measurement": "TGI", "setting": "[42]", "result": "> 100", "unit": "µM"}, {"measurement": "TGI", "setting": "[43]", "result": "> 100", "unit": "µM"}, {"measurement": "TGI", "setting": "[44]", "result": "> 100", "unit": "µM"}, {"measurement": "TGI", "setting": "[45]", "result": "> 100", "unit": "µM"}, {"measurement": "TGI", "setting": "[46]", "result": "> 100", "unit": "µM"}, {"measurement": "TGI", "setting": "[47]", "result": "> 100", "unit": "µM"}, {"measurement": "TGI", "setting": "[48]", "result": "> 100", "unit": "µM"}, {"measurement": "TGI", "setting": "[49]", "result": "> 100", "unit": "µM"}, {"measurement": "TGI", "setting": "[50]", "result": "> 100", "unit": "µM"}, {"measurement": "TGI", "setting": "[51]", "result": "> 100", "unit": "µM"}, {"measurement": "TGI", "setting": "[52]", "result": "> 100", "unit": "µM"}, {"measurement": "TGI", "setting": "[53]", "result": "> 100", "unit": "µM"}]}, {"smiles": "CCOc1ccc(O)cc1[P+](c1ccccc1)(c1ccccc1)c1ccccc1", "values": [{"measurement": "TGI", "setting": "[1]", "result": 20.2, "unit": "µM"}, {"measurement": "TGI", "setting": "[54]", "result": 29.5, "unit": "µM"}, {"measurement": "TGI", "setting": "[2]", "result": 43.2, "unit": "µM"}, {"measurement": "TGI", "setting": "[3]", "result": 81.7, "unit": "µM"}, {"measurement": "TGI", "setting": "[4]", "result": 23.4, "unit": "µM"}, {"measurement": "TGI", "setting": "[55]", "result": 11.2, "unit": "µM"}, {"measurement": "TGI", "setting": "[5]", "result": 10, "unit": "µM"}, {"measurement": "TGI", "setting": "[6]", "result": 17.6, "unit": "µM"}, {"measurement": "TGI", "setting": "[8]", "result": 10.1, "unit": "µM"}, {"measurement": "TGI", "setting": "[9]", "result": 24.2, "unit": "µM"}, {"measurement": "TGI", "setting": "[10]", "result": 13.4, "unit": "µM"}, {"measurement": "TGI", "setting": "[11]", "result": 13.7, "unit": "µM"}, {"measurement": "TGI", "setting": "[13]", "result": 9.61, "unit": "µM"}, {"measurement": "TGI", "setting": "[56]", "result": 28.9, "unit": "µM"}, {"measurement": "TGI", "setting": "[57]", "result": 17.6, "unit": "µM"}, {"measurement": "TGI", "setting": "[16]", "result": 9.48, "unit": "µM"}, {"measurement": "TGI", "setting": "[17]", "result": 11.7, "unit": "µM"}, {"measurement": "TGI", "setting": "[18]", "result": 17.9, "unit": "µM"}, {"measurement": "TGI", "setting": "[19]", "result": 13.6, "unit": "µM"}, {"measurement": "TGI", "setting": "[20]", "result": 12.1, "unit": "µM"}, {"measurement": "TGI", "setting": "[21]", "result": 16.7, "unit": "µM"}, {"measurement": "TGI", "setting": "[22]", "result": 15.3, "unit": "µM"}, {"measurement": "TGI", "setting": "[23]", "result": 20.1, "unit": "µM"}, {"measurement": "TGI", "setting": "[25]", "result": 14.5, "unit": "µM"}, {"measurement": "TGI", "setting": "[26]", "result": 5.55, "unit": "µM"}, {"measurement": "TGI", "setting": "[27]", "result": 14.5, "unit": "µM"}, {"measurement": "TGI", "setting": "[28]", "result": 6.39, "unit": "µM"}, {"measurement": "TGI", "setting": "[29]", "result": 11.4, "unit": "µM"}, {"measurement": "TGI", "setting": "[30]", "result": 19.4, "unit": "µM"}, {"measurement": "TGI", "setting": "[31]", "result": 13.1, "unit": "µM"}, {"measurement": "TGI", "setting": "[32]", "result": 15.7, "unit": "µM"}, {"measurement": "TGI", "setting": "[33]", "result": 26.5, "unit": "µM"}, {"measurement": "TGI", "setting": "[34]", "result": 17.9, "unit": "µM"}, {"measurement": "TGI", "setting": "[35]", "result": "> 100", "unit": "µM"}, {"measurement": "TGI", "setting": "[36]", "result": 19.9, "unit": "µM"}, {"measurement": "TGI", "setting": "[37]", "result": 17.8, "unit": "µM"}, {"measurement": "TGI", "setting": "[39]", "result": 22.6, "unit": "µM"}, {"measurement": "TGI", "setting": "[40]", "result": 4.7, "unit": "µM"}, {"measurement": "TGI", "setting": "[41]", "result": 27.1, "unit": "µM"}, {"measurement": "TGI", "setting": "[42]", "result": 13.7, "unit": "µM"}, {"measurement": "TGI", "setting": "[43]", "result": 24.5, "unit": "µM"}, {"measurement": "TGI", "setting": "[44]", "result": 25.6, "unit": "µM"}, {"measurement": "TGI", "setting": "[45]", "result": 84.8, "unit": "µM"}, {"measurement": "TGI", "setting": "[48]", "result": 12.9, "unit": "µM"}, {"measurement": "TGI", "setting": "[49]", "result": 15, "unit": "µM"}, {"measurement": "TGI", "setting": "[50]", "result": 5.9, "unit": "µM"}, {"measurement": "TGI", "setting": "[51]", "result": 17.8, "unit": "µM"}, {"measurement": "TGI", "setting": "[52]", "result": 52.5, "unit": "µM"}, {"measurement": "TGI", "setting": "[53]", "result": 4.52, "unit": "µM"}]}]}
